Measurements published in patent publication US3988337A, “Substituted triamino-s-triazines” (BASF Wyandotte Corporation, priority 1974, dated 1976).

How the values were obtained:
[1] = Catalysis of toluene diisocyanate condensation to cellular/resinous carbodiimide products (Table I); conditions: 100 parts toluene diisocyanate
Procedure: Utilizing the triazines of Examples III-VI hereof, a series of cellular and resinous products characterized by carbodiimide linkages, as defined in the above-referred to patents, were prepared by the following procedure:
(§1) One hundred parts of toluene diisocyanate was admixed with a catalyst in accordance herewith. With stirring, the admixture was heated to its reaction initiation temperature at which time the reactants were transferred to a separate container for foaming.

[2] = Efficacy of triazine catalysts with 1 part methanol in the catalyst blend (Table II); conditions: 1 part of methanol introduced into the catalyst blend
Procedure: as §1
To test the efficacy of the instant catalysts, samples analogous to samples C, D and Control were prepared, but wherein 1 part of methanol was introduced into the catalyst blend.

Compound | Initiation Temperature ([1]; catalyst 1.0 part) [°C] | Max. Exotherm ([1]; catalyst 1.0 part) [°C] | Nature of Product ([1]; catalyst 1.0 part) | Initiation Temp. [2] [°C] | Nature of Product [2] | Initiation Temperature ([1]; catalyst 2.0 parts) [°C] | Max. Exotherm ([1]; catalyst 2.0 parts) [°C] | Nature of Product ([1]; catalyst 2.0 parts) | Maximum Exotherm [2] [°C]
CCCCN(CCCC)c1nc(N(CCO)CCCN(C)C)nc(N(CCCC)CCCC)n1 [Example V, 2,4-bis(dibutylamino)-6-[3-dimethylamino-N-(2-hydroxyethyl)propylamino]-s-triazine] | 95 | 197 | Resin | 25 | Foam |  |  |  | 
CN(C)CCCN(CCO)c1nc(N(CCO)CCCN(C)C)nc(N(CCO)CCCN(C)C)n1 [Example III, 2,4,6-tris[3-dimethylamino-N-(2-hydroxyethyl)propylamino]-s-triazine] |  |  |  |  |  | 95 | 180 | Foam | 
CN(C)CCCN(CCCN(C)C)c1nc(N(C)CCO)nc(N(CCCN(C)C)CCCN(C)C)n1 [Example IV, 2,4-bis[bis(3-dimethylaminopropyl)amino]-6-(N-methyl-2-hydroxyethylamino)-s-triazine] |  |  |  |  |  | 100 | 188 | Foam | 
CCN(CC)c1nc(N(C)CCO)nc(N(CC)CC)n1 [DMT, 2,4-bis(diethylamino)-6-N-methylethanolamine-s-triazine, reference compound] | 124 | 185 | Foam | 25 | No Foam |  |  |  | 
CCN(CC)CCN(C)c1nc(N(C)CCO)nc(N(C)CCN(CC)CC)n1 [Example VI, 2,4-bis(N-methyl-2-diethylaminoethylamino)-6-(N-methyl-2-hydroxyethylamino)-s-triazine] | 94 | 140 | Resin | 25 | Foam |  |  |  | 177
